In patent US20240368133A1, “Compounds for the Treatment of Pain, in Particular, Neuropathic Pain, and/or Other Diseases or Disorders that are Associated with AT2R and/or AT2R Mediated Signaling” (Confo Therapeutics N.V., priority 2021, published 2024):

Key:
[1] = Liver microsomal stability, mouse; type: in vitro ADME; conditions: male, pH 7.4, liver microsomes
Protocol: Mouse hepatic microsomes were isolated from pooled (50), perfused livers of male Balb/c mice. Rat hepatic microsomes were isolated from pooled (15), perfused livers of male Wistar rats. Isolation was performed according to the standard protocol (Hill, J. R. in Current Protocols in Pharmacology 7.8.1-7.8.11, Wiley Interscience, 2003). The batches of microsomes were tested for quality control using Imipramine, Propranolol and Verapamil as reference compounds.
Microsomal incubations were carried out in 96-well plates in 5 aliquots of 40 μL each (one for each time point). Liver microsomal incubation medium contained PBS (100 mM, pH 7.4), MgCl2 (3.3 mM), NADPH (3 mM), glucose-6-phosphate (5.3 mM), glucose-6-phosphate dehydrogenase (0.67 units/ml) with 0.42 mg of liver microsomal protein per ml. Control incubations were performed replacing the NADPH-cofactor system with PBS. Test compound (2 μM, final solvent concentration 1.6%) was incubated with microsomes at 37° C., shaking at 100 rpm. Incubations were performed in duplicates. Five time points over 40 minutes have been analyzed. The reactions were stopped by adding 12 volumes of 90% acetonitrile-water to incubation aliquots, followed by protein sedimentation by centrifuging at 5500 rpm for 3 minutes. […]. Supernatants were analyzed using the HPLC system coupled with tandem mass spectrometer (API3000 PE Sciex). Acquisition and analysis of the data were performed using Analyst 1.5.2 software (PE Sciex). The elimination constant (kel), half-life (t½) and intrinsic clearance (Clint) were determined in plot of […] versus time, using linear regression analysis:
Mouse hepatic microsomes were isolated from pooled, perfused livers of male CD1 mice. Rat hepatic microsomes were isolated from pooled, perfused livers of male Sprague Dawley rats. Dog hepatic microsomes were isolated from pooled, perfused livers of male Beagle dogs. The batches of microsomes were tested for quality control using Testosterone, Propranolol and Caffeine as reference compounds.
A 10 mM stock solution of compound in DMSO is diluted three-fold in DMSO. This pre-diluted compound solution is then further diluted to 2 μM in a 50 mM phosphate buffer (PBS, pH 7.4) and pre-warmed at 37° C. This compound dilution is mixed F2 with microsomal/cofactor mix at 37° C. under shaking at 300 rpm. Final reaction conditions are: 100 μL incubation volume, 1 μM of test compound (in duplicate), <0.1% DMSO, 0.5 mg/mL microsomes, 0.6 U/mL Glucose-6-phosphate-dehydrogenase (G6PDH, Roche, 10127671001), 3.3 mM MgCl2 (Sigma, M2670), 3.3 mM glucose-6-phosphate (Sigma, G-7879) and 1.3 mM NADP+ (Sigma, N-0505).
After 60 min of incubation at 300 rpm and 37° C., the reaction was stopped with 3 volumes of STOP solution (acetonitrile/MeOH 2/1 with diclofenac as internal standard). For the time point zero, 3 volumes of STOP solution were added to the compound dilution before the microsome mix was added. Six time points over 60 minutes have been analyzed. The samples of all time points were centrifuged, filtered and the supernatant analyzed by LCMS/MS (systems API4000).
The instrument responses (peak areas/IS peak area) were referenced to the zero time-point samples (considered as 100%) in order to determine the percentage of compound remaining.
Testosterone (1 μM) and Propranolol and Caffeine (1 μM) were used as reference compounds, being unstable and stable compounds respectively. If the microsomal stability values for these controls are not in the range determined by the historical data, the assay is not validated. The solubility of the compound in the final test concentration in 50 mM buffer pH 7.4 is checked by microscope to indicate whether precipitation is observed or not. If a precipitate is observed, no data of microsomal stability is generated.

CYP1A2 = CYP1A2 (Homo sapiens (Human), UniProt P05177); experiment: in vitro
Chain of CYP1A2 (P05177 whole entry): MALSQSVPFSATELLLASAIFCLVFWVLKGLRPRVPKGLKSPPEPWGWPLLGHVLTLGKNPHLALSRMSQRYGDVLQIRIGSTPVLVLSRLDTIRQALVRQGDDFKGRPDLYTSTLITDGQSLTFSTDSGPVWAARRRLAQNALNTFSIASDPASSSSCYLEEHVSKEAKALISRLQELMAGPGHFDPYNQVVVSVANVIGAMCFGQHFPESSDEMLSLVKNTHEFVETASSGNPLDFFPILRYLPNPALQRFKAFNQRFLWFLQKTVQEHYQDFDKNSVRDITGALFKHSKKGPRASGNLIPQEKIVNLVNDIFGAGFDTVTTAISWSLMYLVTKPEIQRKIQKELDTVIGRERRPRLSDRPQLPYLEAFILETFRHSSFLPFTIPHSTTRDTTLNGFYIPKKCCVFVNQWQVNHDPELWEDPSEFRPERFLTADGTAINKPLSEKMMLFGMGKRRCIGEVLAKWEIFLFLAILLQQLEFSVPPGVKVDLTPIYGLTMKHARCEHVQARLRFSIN
Protocol: (§1) The aim of this assay is to determine the inhibitory potential of a test compound. A major concern for drug-drug-interaction is cytochrome P450 inhibition. Reversible CYP inhibition was determined in human liver microsomes using specific probe substrates for human cytochrome P450 isoenzymes CYP1A2, 2C9, 2C19, 2D6 and 3A4.
The potential for CYP450 inhibition was assessed by performing in vitro inhibition studies using fluorogenic CYP450 substrates with the corresponding CYP450 enzymes and NADPH regeneration system (Vivid CYP450 Screening Kits) with some minor changes to the manufacturer's protocols. The fluorescent signal produced from reaction is directly proportional to the cytochrome P450 activity. In the cases when tested compounds interfere with the CYP450 enzyme-substrate reaction, the fluorescent signal decreases. In brief, the tested compounds were first dissolved in DMSO at 100× concentration (1 mM), and diluted in buffer to 2.5× concentration (25 μM). Then the 2.5× compound solutions were mixed with the Master Pre-mix consisting of Human CYP450+Oxidoreductase and NADP+Regeneration System (glucose-6-phosphate and glucose-6-phosphate dehydrogenase). After 10 minutes pre-incubation, the enzymatic reaction was initiated by the addition of a mix of NADPH and the appropriate CYP450 substrates. The plate was incubated for the desired reaction time (25 min for CYP1A2, CYP2C9, CYP2D6, and CYP3A4, 60 min for CYP2C19) after which Stop Reagent was added and fluorescence measured using SpectraMax Paradigm Multi-Mode Microplate Reader. All test points were performed in quadruplicates at concentration 10 μM (1% DMSO).
(§2) A 10 mM stock solution of test compound is prepared in methanol. This stock is further serially diluted 1:3 in methanol and then added to mixture containing 50 mM potassium phosphate buffer pH7.4, human liver microsomes (BD Gentest) and probe substrate. After pre-warming 5 min at 37° C., the reaction is started by adding co-factor mix ([…] glucose-6-phosphate, 1.7 mg/mL NADP, 6 U/mL of glucose-6-phosphate dehydrogenase), resulting in a final concentration of test compound at 10 μM (2% MeOH).
(§3) Final concentrations of co-factor mix components are as follows: 1.56 mg/mL glucose-6-phosphate, 0.34 mg/mL NADP, 1.2 U/mL of glucose-6-phosphate dehydrogenase.
(§4) After incubation at 37° C., the reaction (aliquot of 50 μL) is terminated with 150 μL CH3CN:MeOH (2:1) solution with internal standard (warfarin for 2C9, diclofenac for all other tested isoforms). Samples are centrifuged and the supernatant fractions analyzed by LC-MS/MS.
(§5) The instrument responses (ratio of test compound and internal standard peak areas) are referenced to those for solvent controls (assumed as 100%) in order to determine the percentage reduction in probe metabolism. Percent of control activity vs. concentration plots are generated and fitted using GraphPad Prism software to generate IC50.

CYP2C19 = CYP2C19 (Homo sapiens (Human), UniProt P33261); experiment: CYP inhibition, CYP2C19; type: in vitro ADME; conditions: test compound at 10 μM, read-out: % Inhibition (PIN) 2C19
Chain of CYP2C19 (P33261 whole entry): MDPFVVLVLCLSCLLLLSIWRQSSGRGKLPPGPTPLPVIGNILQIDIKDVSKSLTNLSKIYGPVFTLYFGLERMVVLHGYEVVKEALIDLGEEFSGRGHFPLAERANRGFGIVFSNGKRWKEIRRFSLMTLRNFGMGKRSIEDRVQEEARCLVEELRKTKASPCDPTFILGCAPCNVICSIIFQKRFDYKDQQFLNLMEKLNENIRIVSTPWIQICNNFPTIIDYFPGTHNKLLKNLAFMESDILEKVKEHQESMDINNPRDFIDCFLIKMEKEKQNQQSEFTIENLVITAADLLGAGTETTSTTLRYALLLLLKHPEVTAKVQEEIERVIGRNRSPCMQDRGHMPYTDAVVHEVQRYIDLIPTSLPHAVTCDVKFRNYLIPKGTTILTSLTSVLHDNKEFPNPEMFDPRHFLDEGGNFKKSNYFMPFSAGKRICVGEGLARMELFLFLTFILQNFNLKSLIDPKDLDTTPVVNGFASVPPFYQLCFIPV
Protocol: as §1, with “3A4. […]” for “3A4.”
as §2, §3, §4, §5

Row | Structure (SMILES) | microsomal CLint [1] [µL/min/mg] | inhibition at 10 µM (CYP1A2) [%] | inhibition at 10 µM (CYP2C19) [%]
1 | CCCCOC(=O)NS(=O)(=O)c1ccc(C(F)(F)F)cc1N1CCN(Cc2nc3ccccc3n2C)CC1 [Compound A-09, butyl N-[2-[4-[(1-methylbenzimidazol-2-yl)methyl]piperazin-1-yl]-4-(trifluoromethyl)phenyl]sulfonylcarbamate] | 33 |  | 
2 | CCCCNC(=O)NS(=O)(=O)c1ccc(C(F)(F)F)cc1N1CCN(Cc2nc3ccccc3n2C)CC1 [Compound A-10, 1-butyl-3-[2-[4-[(1-methylbenzimidazol-2-yl)methyl]piperazin-1-yl]-4-(trifluoromethyl)phenyl]sulfonyl-urea] | 69 | 23 | 38.6
3 | CCCCNC(=O)NS(=O)(=O)c1ccc(C)cc1N1CCN(Cc2nc3ccccc3n2C)CC1 [Compound A-12, 1-butyl-3-[4-methyl-2-[4-[(1-methylbenzimidazol-2-yl)methyl]piperazin-1-yl]phenyl]sulfonyl-urea] | 157 |  | 
4 | CC(C)Cc1ccc(-c2nn[nH]n2)c(N2CCN(Cc3nc4ccccc4n3C)CC2)c1 [Compound A-20, 2-[[4-[5-isobutyl-2-(2H-tetrazol-5-yl)-phenyl]piperazin-1-yl]methyl]-1-meth-yl-benzimidazole] | 20 |  | 
5 | CC(C)Oc1ccc(-c2nn[nH]n2)c(N2CCN(Cc3nc4ccccc4n3C)CC2)c1 [Compound A-24, 2-[[4-[5-isopropoxy-2-(2H-tetrazol-5-yl)phenyl]piperazin-1-yl]methyl]-1-methyl-benzimidazole] | 9 | 27.4 | 30.9
6 | CC(C)Cc1ccc(-c2nn[nH]n2)c(N2CCN(Cc3nc4ccccc4c(=O)[nH]3)CC2)c1 [Compound A-31, 2-[[4-[5-isobutyl-2-(2H-tetrazol-5-yl)phenyl]piperazin-1-yl]methyl]-3H-quinazolin-4-one] | 16 | 6.09 | 73
7 | CC(C)Oc1ccc(-c2nn[nH]n2)c(N2CCN(Cc3nc4ccccc4c(=O)[nH]3)CC2)c1 [Compound A-32] | 6 | 7.17 | 48.6
8 | CC(C)Oc1ccc(-c2nn[nH]n2)c(N2CCN(Cc3nc4ccccc4s3)CC2)c1 [Compound A-51, 2-[[4-[5-isoprop-oxy-2-(2H-tetrazol-5-yl)phenyl]piper-azin-1-yl]methyl]-1,3-benzothiazole] | 4 |  | 
9 | Cc1cc(CN2CCN(c3cc(CC(C)C)ccc3-c3nn[nH]n3)CC2)no1 [Compound A-82, 3-[[4-[5-isobutyl-2-(2H-tetrazol-5-yl)phenyl]piperazin-1-yl]methyl]-5-methyl-isoxazole] | 7 | 9.89 | -4.12
10 | CC(C)Cc1ccc(-c2nn[nH]n2)c(N2CCN(Cc3nccn3C)CC2)c1 [Compound A-83, 1-[5-isobutyl-2-(2H-tetrazol-5-yl)-phenyl]-4-[(1-meth-ylimidazol-2-yl)-methyl]piperazine] | 11 | 2.61 | 6.38
11 | CC(C)Cc1ccc(-c2nn[nH]n2)c(N2CCN(Cc3ccnn3C)CC2)c1 [Compound A-84, 1-[5-isobutyl-2-(2H-tetrazol-5-yl)phenyl]-4-[(1-methylpyrazol-5-yl)methyl]piperazine] | 17 | 5.6 | 18.9
12 | CC(C)Cc1ccc(-c2nn[nH]n2)c(N2CCN(Cc3ncccn3)CC2)c1 [Compound A-88] | 7 | 22.5 | 17.6
13 | CC(C)Cc1ccc(-c2nn[nH]n2)c(N2CCN(Cc3cccnn3)CC2)c1 [Compound A-90, 3-[[4-[5-isobutyl-2-(2H-tetrazol-5-yl)phenyl]piperazin-1-yl]methyl]pyridazine] | 10 | 10.3 | 27.9
14 | CC(C)Cc1cc(F)c(-c2nn[nH]n2)c(N2CCN(Cc3cccnn3)C(C)C2)c1 (stereo not shown) [Compound A-173, 3-[[4-[3-fluoro-5-isobutyl-2-(2H-tetrazol-5-yl)phenyl]-2-methyl-piperazin-1-yl]methyl]pyridazine] | 5 | 18.5 | 8.93
15 | CCC1CN(Cc2cccnn2)CCN1c1cc(CC(C)C)cc(F)c1-c1nn[nH]n1 (stereo not shown) [Compound A-181, 3-[[3-ethyl-4-[3-fluoro-5-isobutyl-2-(2H-tetrazol-5-yl)phenyl]piperazin-1-yl]methyl]pyridazine] | 6 |  | 
16 | CC(C)Cc1cc(F)c(-c2nn[nH]n2)c(N2CC(C)N(Cc3cccnn3)CC2C)c1 (stereo not shown) [Compound A-183, 3-[[4-[3-fluoro-5-isobutyl-2-(2H-tetrazol-5-yl)phen-yl]-2,5-dimethyl-piperazin-1-yl]-methyl]pyridazine] | 12 |  | 
17 | CC(C)Cc1cc(F)c(-c2nn[nH]n2)c(N2CCN(Cc3ccccn3)[C@@H](C)C2)c1 [Compound A-217, (2S)-4-[3-fluoro-5-isobutyl-2-(2H-tetrazol-5-yl)phenyl]-2-methyl-1-(2-pyridylmethyl)piperazine] |  | 16 | 39
18 | Cc1cnc(CN2CCN(c3cc(CC(C)C)cc(F)c3-c3nn[nH]n3)C[C@@H]2C)s1 [Compound A-223, 2-[[(2S)-4-[3-fluoro-5-isobutyl-2-(2H-tetrazol-5-yl)phenyl]-2-methyl-piperazin-1-yl]methyl]-5-methyl-thiazole] |  | 16 | 25
